Experimental data from ChEMBL document CHEMBL1955797, “Discovery of vinylcycloalkyl-substituted benzimidazole TRPM8 antagonists effective in the treatment of cold allodynia” (Bioorg Med Chem Lett, 2012).
pIC50: −log10 of the molar value. Calls of active or inactive are those of the source. No cut-off for these calls is given here.

Key:
[1] = Metabolic stability in rat liver microsomes assessed as compound remaining after 10 mins; assay type: ADME, Microsome; conditions: read-out: Stability
[2] = Metabolic stability in human liver microsomes assessed as compound remaining after 10 mins; assay type: ADME, Microsome; conditions: read-out: Stability
[3] = target: Transient receptor potential M8 protein (Canis lupus familiaris, UniProt Q1A7N1); test: Antagonist activity at dog TRPM8 expressed in HEK293 cells assessed as inhibition of icilin-induced calcium flux by FLIPR assay; assay type: functional, cell-based
Chain of Transient receptor potential M8 protein (Q1A7N1 whole entry): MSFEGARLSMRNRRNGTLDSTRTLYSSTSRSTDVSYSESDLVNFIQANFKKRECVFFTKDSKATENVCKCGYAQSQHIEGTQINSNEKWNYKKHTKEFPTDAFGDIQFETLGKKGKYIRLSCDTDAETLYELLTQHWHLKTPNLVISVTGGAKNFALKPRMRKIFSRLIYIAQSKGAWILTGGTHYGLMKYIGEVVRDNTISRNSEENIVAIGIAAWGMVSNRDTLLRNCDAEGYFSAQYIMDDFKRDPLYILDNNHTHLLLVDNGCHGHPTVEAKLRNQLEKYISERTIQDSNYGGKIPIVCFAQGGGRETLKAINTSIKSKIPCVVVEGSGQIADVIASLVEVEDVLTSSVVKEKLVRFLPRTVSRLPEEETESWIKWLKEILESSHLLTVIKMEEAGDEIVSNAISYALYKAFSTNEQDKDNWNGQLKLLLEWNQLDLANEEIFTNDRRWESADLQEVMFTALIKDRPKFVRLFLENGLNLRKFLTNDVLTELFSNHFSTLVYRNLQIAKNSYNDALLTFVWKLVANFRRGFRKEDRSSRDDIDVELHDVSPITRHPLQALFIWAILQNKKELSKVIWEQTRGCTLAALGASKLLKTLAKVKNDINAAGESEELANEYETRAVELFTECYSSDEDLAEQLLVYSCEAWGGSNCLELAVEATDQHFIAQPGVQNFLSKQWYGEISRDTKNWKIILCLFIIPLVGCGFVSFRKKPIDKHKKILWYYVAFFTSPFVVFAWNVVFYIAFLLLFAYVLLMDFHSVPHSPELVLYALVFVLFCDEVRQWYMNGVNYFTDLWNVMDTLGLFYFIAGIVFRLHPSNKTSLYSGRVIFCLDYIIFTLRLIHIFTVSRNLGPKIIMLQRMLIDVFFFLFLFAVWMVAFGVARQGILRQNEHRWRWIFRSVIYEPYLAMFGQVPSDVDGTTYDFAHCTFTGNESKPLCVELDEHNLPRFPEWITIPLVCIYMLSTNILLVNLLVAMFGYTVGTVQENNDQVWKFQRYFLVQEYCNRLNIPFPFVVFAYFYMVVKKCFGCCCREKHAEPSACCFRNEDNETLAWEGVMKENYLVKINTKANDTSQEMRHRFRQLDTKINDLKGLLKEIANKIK

[4] = Metabolic stability in dog liver microsomes assessed as compound remaining after 10 mins; assay type: ADME, Canis lupus familiaris, Microsome; conditions: read-out: Stability
[5] = target: Transient receptor potential M8 protein (Canis lupus familiaris) (UniProt Q1A7N1); test: Antagonist activity at dog TRPM8 expressed in human HEK293 cells assessed as inhibition of icilin-induced calcium flux at 0.2 uM by FLIPR assay; assay type: functional, cell-based
Chain of Transient receptor potential M8 protein (Canis lupus familiaris) (Q1A7N1 1-1104): as the sequence (Q1A7N1 whole entry) above

[6] = test system: Rattus norvegicus; test: Antiallodynic activity against chronic constriction injury cold allodynia in rat assessed as inhibition of cold hypersensitivity at 10 mg/kg, po measured after 2 to 3 hrs post dosing; assay type: functional
[7] = target: Transient receptor potential cation channel subfamily M member 8 (Homo sapiens, UniProt Q7Z2W7); test: Antagonist activity at human TRPM8 by calcium flux assay; assay type: functional
Chain of Transient receptor potential cation channel subfamily M member 8 (Homo sapiens, UniProt Q7Z2W7) (Q7Z2W7 whole entry): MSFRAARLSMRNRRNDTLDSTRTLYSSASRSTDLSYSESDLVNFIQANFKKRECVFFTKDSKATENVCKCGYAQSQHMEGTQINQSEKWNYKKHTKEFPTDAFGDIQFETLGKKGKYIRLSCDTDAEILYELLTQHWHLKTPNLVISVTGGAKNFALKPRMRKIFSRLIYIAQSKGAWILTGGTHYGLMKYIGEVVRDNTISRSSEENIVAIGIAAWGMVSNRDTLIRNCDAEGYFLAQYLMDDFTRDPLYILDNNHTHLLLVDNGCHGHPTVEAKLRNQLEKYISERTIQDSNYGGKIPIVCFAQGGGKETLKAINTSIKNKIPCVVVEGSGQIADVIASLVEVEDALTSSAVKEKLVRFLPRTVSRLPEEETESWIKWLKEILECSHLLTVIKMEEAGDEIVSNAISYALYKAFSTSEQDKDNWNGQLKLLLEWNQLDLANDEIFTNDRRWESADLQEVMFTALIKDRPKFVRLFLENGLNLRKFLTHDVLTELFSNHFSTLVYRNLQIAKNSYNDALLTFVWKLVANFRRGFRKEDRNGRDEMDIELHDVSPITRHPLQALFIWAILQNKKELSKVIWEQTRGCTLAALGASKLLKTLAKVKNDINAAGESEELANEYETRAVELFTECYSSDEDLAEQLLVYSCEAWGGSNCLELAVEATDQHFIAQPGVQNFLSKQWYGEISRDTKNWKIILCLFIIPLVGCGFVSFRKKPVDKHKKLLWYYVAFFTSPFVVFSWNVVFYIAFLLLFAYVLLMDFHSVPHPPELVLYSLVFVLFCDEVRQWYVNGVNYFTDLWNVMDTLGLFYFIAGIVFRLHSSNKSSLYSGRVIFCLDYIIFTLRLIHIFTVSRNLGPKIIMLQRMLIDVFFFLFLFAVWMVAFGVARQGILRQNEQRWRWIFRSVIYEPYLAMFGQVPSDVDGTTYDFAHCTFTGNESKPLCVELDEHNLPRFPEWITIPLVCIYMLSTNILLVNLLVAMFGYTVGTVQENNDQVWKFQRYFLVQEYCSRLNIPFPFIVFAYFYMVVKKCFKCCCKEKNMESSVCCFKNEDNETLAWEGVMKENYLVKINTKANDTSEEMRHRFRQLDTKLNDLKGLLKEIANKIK

[8] = target: Cytochrome P450 2C9 (Homo sapiens, UniProt P11712); test: Inhibition of recombinant CYP2C9; assay type: ADME
Chain of Cytochrome P450 2C9 (P11712 whole entry): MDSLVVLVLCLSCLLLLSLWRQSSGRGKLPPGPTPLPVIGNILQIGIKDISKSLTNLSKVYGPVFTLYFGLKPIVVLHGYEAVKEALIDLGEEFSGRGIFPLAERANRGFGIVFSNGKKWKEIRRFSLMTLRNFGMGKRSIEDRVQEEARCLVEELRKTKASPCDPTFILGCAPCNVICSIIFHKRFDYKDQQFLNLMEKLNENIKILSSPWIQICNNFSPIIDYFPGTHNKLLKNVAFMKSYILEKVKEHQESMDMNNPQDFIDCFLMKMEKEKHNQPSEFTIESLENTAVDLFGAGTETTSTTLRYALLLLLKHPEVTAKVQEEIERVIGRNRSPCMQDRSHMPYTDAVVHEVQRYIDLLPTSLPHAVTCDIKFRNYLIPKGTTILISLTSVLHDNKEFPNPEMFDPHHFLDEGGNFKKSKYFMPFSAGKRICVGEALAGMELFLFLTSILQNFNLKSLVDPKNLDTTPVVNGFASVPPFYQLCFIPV

[9] = Half life in rat at 10 mg/kg; assay type: ADME, organism-based; design: dose 10 mg/kg; conditions: in vivo
[10] = Clearance in rat at 10 mg/kg; assay type: ADME, organism-based; design: dose 10 mg/kg; conditions: in vivo
[11] = target: Transient receptor potential cation channel subfamily M member 8 (Rattus norvegicus, UniProt Q8R455); test: Antagonist activity at rat TRPM8 by calcium flux assay; assay type: functional
[12] = Volume of distribution at steady state in rat at 10 mg/kg; assay type: ADME, organism-based; design: dose 10 mg/kg; conditions: in vivo, read-out: Vdss
[13] = test system: Rattus norvegicus; test: Antiallodynic activity against chronic constriction injury cold allodynia in rat assessed as inhibition of cold hypersensitivity at 10 mg/kg, po measured after 4 hrs post dosing; assay type: functional, organism-based; design: dose 10 mg/kg
[14] = test system: Rattus norvegicus; test: Inhibition of icilin-induced wet dog shakes behavior in po dosed rat administered 60 mins prior to icilin challenge; assay type: functional
[15] = target: T1, Cytochrome P450 2C19 (Homo sapiens, UniProt P33261); test: Inhibition of recombinant CYP2C19; assay type: ADME
T1 sequence (P33261 whole entry): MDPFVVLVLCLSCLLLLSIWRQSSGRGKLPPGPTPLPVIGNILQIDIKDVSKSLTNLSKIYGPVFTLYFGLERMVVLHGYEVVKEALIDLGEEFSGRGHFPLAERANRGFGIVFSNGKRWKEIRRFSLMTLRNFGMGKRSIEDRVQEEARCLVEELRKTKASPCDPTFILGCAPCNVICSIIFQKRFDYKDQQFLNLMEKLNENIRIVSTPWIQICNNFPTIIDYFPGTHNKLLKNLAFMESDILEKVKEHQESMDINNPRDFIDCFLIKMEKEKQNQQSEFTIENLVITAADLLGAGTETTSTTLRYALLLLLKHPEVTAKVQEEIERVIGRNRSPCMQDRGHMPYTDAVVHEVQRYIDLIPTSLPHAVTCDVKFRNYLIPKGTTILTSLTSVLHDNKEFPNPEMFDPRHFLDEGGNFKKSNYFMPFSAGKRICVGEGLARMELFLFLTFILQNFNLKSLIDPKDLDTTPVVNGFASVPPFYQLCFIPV

[16] = target: T2, Cytochrome P450 3A4 (Homo sapiens, UniProt P08684); test: Inhibition of CYP3A4 in human liver microsomes; assay type: ADME, Microsome
T2 sequence (P08684 whole entry): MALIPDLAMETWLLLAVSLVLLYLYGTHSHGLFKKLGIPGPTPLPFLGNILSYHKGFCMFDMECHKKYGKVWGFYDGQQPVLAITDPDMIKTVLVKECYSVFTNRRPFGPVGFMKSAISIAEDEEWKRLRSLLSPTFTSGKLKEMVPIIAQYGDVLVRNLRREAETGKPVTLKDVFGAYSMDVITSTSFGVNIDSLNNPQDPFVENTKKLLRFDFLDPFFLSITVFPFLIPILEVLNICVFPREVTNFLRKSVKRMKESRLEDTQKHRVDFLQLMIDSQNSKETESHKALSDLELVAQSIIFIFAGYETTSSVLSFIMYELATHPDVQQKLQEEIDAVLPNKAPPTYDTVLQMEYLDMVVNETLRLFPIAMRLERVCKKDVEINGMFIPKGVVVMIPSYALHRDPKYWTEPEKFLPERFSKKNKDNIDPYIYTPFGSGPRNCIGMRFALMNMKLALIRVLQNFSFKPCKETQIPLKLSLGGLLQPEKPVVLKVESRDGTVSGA

[17] = target: CYP2C9 (Homo sapiens, UniProt P11712); test: Inhibition of CYP2C9 in human liver microsomes at 3.3 uM; assay type: ADME, Microsome
Chain of CYP2C9 (P11712 whole entry): as the sequence (P11712 whole entry) above

[18] = target: T2, Cytochrome P450 3A4; test: Inhibition of recombinant CYP3A4; assay type: ADME
[19] = Oral bioavailability in rat at 10 mg/kg; assay type: ADME, organism-based; conditions: in vivo
[20] = target: T3, Cytochrome P450 1A2 (Homo sapiens, UniProt P05177); test: Inhibition of recombinant CYP1A2; assay type: ADME
T3 sequence (P05177 whole entry): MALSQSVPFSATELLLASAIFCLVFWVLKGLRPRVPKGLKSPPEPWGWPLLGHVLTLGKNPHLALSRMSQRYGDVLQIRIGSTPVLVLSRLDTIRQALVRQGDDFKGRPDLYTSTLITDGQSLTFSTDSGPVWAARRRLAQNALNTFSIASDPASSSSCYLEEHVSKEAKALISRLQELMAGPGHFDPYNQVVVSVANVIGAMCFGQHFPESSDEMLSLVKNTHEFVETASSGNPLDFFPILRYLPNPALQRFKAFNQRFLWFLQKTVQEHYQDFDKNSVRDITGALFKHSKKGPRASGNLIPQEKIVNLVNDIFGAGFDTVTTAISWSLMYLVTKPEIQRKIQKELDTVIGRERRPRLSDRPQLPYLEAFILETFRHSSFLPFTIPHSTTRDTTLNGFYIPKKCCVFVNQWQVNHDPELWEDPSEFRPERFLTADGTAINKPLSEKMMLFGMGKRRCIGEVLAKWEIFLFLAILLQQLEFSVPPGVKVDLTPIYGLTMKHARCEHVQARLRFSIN

[21] = Cmax in rat at 10 mg/kg; assay type: ADME, organism-based; design: dose 10 mg/kg; conditions: in vivo
[22] = target: T1, Cytochrome P450 2C19; test: Inhibition of CYP2C19 in human liver microsomes; assay type: ADME, Microsome
[23] = test system: Liver microsomes; test: Metabolic stability in human liver microsomes assessed as CYP3A4-mediated glutathione adduct formation by glutathione conjugation assay; assay type: ADME, Microsome
[24] = test system: Rattus norvegicus; test: Antiallodynic activity against chronic constriction injury cold allodynia in rat assessed as inhibition of cold hypersensitivity at 30 mg/kg, po measured after 2 to 3 hrs post dosing; assay type: functional
[25] = test system: Rattus norvegicus; test: Antiallodynic activity against chronic constriction injury cold allodynia in rat assessed as inhibition of cold hypersensitivity at 10 mg/kg, po measured after 2 hrs post dosing; assay type: functional, organism-based; design: dose 10 mg/kg
[26] = Tmax in rat at 10 mg/kg; assay type: ADME, organism-based; design: dose 10 mg/kg; conditions: in vivo
[27] = target: Cytochrome P450 2D6 (Homo sapiens, UniProt P10635); test: Inhibition of recombinant CYP2D6; assay type: ADME
Chain of Cytochrome P450 2D6 (P10635 whole entry): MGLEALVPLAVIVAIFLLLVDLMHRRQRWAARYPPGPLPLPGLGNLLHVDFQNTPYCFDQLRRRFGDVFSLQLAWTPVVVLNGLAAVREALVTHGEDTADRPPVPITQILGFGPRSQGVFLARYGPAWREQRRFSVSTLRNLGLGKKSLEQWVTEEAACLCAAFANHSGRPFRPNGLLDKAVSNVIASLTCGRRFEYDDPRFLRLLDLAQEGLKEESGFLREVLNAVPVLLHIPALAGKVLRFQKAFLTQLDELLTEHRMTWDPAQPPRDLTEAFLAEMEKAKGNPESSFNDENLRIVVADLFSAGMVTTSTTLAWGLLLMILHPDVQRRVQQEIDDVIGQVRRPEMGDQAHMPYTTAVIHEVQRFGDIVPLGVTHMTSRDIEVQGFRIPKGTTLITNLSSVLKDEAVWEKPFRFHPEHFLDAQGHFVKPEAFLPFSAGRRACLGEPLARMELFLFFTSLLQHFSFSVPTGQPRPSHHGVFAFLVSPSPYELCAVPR

## Clc1ccccc1-c1ccc2[nH]c(/C=C/C3CCCCC3)nc2c1
[1]
  remaining at 10 min: 39%
[2]
  remaining at 10 min: 71%
[3]
  pIC50: 8.05

## FC(F)(F)c1ccccc1-c1ccc2[nH]c(/C=C/C3CCSCC3)nc2c1
[1]
  remaining at 10 min: 6%
[2]
  remaining at 10 min: 67%
[4]
  remaining at 10 min: 8%

## CC(=O)N1CCC(/C=C/c2nc3cc(-c4ccccc4C(F)(F)F)ccc3[nH]2)CC1
[1]
  remaining at 10 min: 85%
[2]
  remaining at 10 min: 100%
[4]
  remaining at 10 min: 100%
[5]
  inhibition: 1%

## FC(F)(F)c1ccccc1-c1ccc2[nH]c(/C=C/C3CCCCC3)nc2c1
[6]
  inhibition in vivo at 10 mg/kg: 90%
[7]
  pIC50: 7.82
[8]
  pIC50: 5.46
[9]
  half-life: 2.9 h
[10]
  clearance: 22 mL/min/kg
[11]
  pIC50: 7.70
[12]
  Vd: 9.5 L/kg
[13]
  Activity: Active
[14]
  ED50: 6.4 mg/kg
  inhibition: Dose-dependent effect
[1]
  remaining at 10 min: 58%
[2]
  remaining at 10 min: 85%
[15]
  pIC50: < 5.00
[16]
  pIC50: < 4.52
[17]
  inhibition at 3.3 µM: 62%
[18]
  pIC50: 5.46
[4]
  remaining at 10 min: 20%
[19]
  bioavailability: 14%
[3]
  pIC50: 7.96
[20]
  pIC50: < 5.00
[21]
  Cmax: 225 ng/mL
[22]
  pIC50: < 4.52
[23]
  Stability: Stable
[24]
  inhibition in vivo at 30 mg/kg: 90%
[25]
  Activity: Active
[26]
  Tmax: 1.6 h
[27]
  pIC50: < 5.00

## FC(F)(F)c1cccc(C(F)(F)F)c1-c1ccc2[nH]c(/C=C/C3CCCCC3)nc2c1
[1]
  remaining at 10 min: 44%
[2]
  remaining at 10 min: 56%
[4]
  remaining at 10 min: 61%
[3]
  pIC50: 7.91

## FC(F)(F)Oc1ccccc1-c1ccc2[nH]c(/C=C/C3CCCCC3)nc2c1
[1]
  remaining at 10 min: 91%
[2]
  remaining at 10 min: 71%

## CN1CCC(/C=C/c2nc3cc(-c4ccccc4C(F)(F)F)ccc3[nH]2)CC1
[5]
  inhibition: 1%

## Fc1ccccc1-c1ccc2[nH]c(/C=C/C3CCCCC3)nc2c1
[1]
  remaining at 10 min: 34%
[2]
  remaining at 10 min: 98%
[4]
  remaining at 10 min: 75%
[3]
  pIC50: 7.68

## CS(=O)(=O)N1CCC(/C=C/c2nc3cc(-c4ccccc4C(F)(F)F)ccc3[nH]2)CC1
[4]
  remaining at 10 min: 75%
[5]
  inhibition: 14%

## FC(F)(F)Oc1ccccc1-c1ccc2[nH]c(/C=C/C3CCCC3)nc2c1
[1]
  remaining at 10 min: 71%
[2]
  remaining at 10 min: 84%
[3]
  pIC50: 6.96

## Cc1ccccc1-c1ccc2[nH]c(/C=C/C3CCCCC3)nc2c1
[1]
  remaining at 10 min: 15%
[2]
  remaining at 10 min: 77%
[4]
  remaining at 10 min: 13%
[3]
  pIC50: 8.15

## CC1(/C=C/c2nc3cc(-c4ccccc4C(F)(F)F)ccc3[nH]2)CCOCC1
[1]
  remaining at 10 min: 20%
[2]
  remaining at 10 min: 62%
[4]
  remaining at 10 min: 35%
[3]
  pIC50: 8.05

## Fc1cccc(C(F)(F)F)c1-c1ccc2[nH]c(/C=C/C3CCCCC3)nc2c1
[1]
  remaining at 10 min: 66%
[2]
  remaining at 10 min: 67%
[4]
  remaining at 10 min: 42%
[3]
  pIC50: 8.07

## FC1(F)CCC(/C=C/c2nc3cc(-c4ccccc4C(F)(F)F)ccc3[nH]2)CC1
[1]
  remaining at 10 min: 100%
[2]
  remaining at 10 min: 47%
[4]
  remaining at 10 min: 39%
[3]
  pIC50: 7.68

## FC(F)(F)c1cccnc1-c1ccc2[nH]c(/C=C/C3CCCCC3)nc2c1
[1]
  remaining at 10 min: 72%
[2]
  remaining at 10 min: 90%
[4]
  remaining at 10 min: 42%
[3]
  pIC50: 7.42

## C(=C\C1CCCCC1)/c1nc2cc(-c3ccccc3)ccc2[nH]1
[3]
  pIC50: 6.96

## FC(F)(F)c1ccccc1-c1ccc2[nH]c(/C=C/C3CCOCC3)nc2c1
[1]
  remaining at 10 min: 79%
[2]
  remaining at 10 min: 93%
[4]
  remaining at 10 min: 51%
[3]
  pIC50: 8.15

## CC1(/C=C/c2nc3cc(-c4ccccc4C(F)(F)F)ccc3[nH]2)CCC(F)(F)CC1
[1]
  remaining at 10 min: 84%
[2]
  remaining at 10 min: 97%
[4]
  remaining at 10 min: 28%
[3]
  pIC50: 8.05

## O=S1(=O)CCC(/C=C/c2nc3cc(-c4ccccc4C(F)(F)F)ccc3[nH]2)CC1
[1]
  remaining at 10 min: 74%
[2]
  remaining at 10 min: 91%
[4]
  remaining at 10 min: 60%
[5]
  inhibition: 63%

## COc1ccccc1-c1ccc2[nH]c(/C=C/C3CCCCC3)nc2c1
[1]
  remaining at 10 min: 10%
[2]
  remaining at 10 min: 62%
[3]
  pIC50: 8.05

## FC(F)(F)c1ccccc1-c1ccc2[nH]c(/C=C/C3CCNCC3)nc2c1
[1]
  remaining at 10 min: 86%
[2]
  remaining at 10 min: 99%
[4]
  remaining at 10 min: 98%
[5]
  inhibition: 16%
